Measured values from US20160229893A1, “Novel Peptide Compound for Inhibiting Restenosis and Promoting Re-Endothelialization and Method for Preparing the Same” (Chonnam National University Hospital, priority 2014, published 2016).

Tested on: vascular smooth muscle cell (SMC)
Experiment: Effect on proliferation of vascular smooth muscle cell (SMC), XTT assay
Format: cell-based
Details: 1 uM; XTT absorbance at 450 nm at 1, 4 and 7 days; versus untreated control (FIG. 1)
Method: As cells used in a cell culture, the vascular smooth muscle cell (SMC) which is a smooth muscle cell, and the human umbilical vein endothelial cell (HUVEC) which is the cell for promoting vascular re-endothelialization were purchased from Korea Cell Line Bank, respectively. The cell culture was performed by culturing the vascular smooth muscle cell (SMC) and the human umbilical vein endothelial cell (HUVEC) in Dulbecoco's modified eagle medium (DMEM) with 10% fetal bovine serum (FBS) under conditions of 37° C. and 5% CO2. […]
(§1) 5×10^4 of SMC cells cultured according to Example 2 were cultured in the 24-well cell culture plate and then treated with 1 uM of the peptide compound prepared by Example 2 (hereinafter, referred to as ‘EVR-P’). […] After the reaction, 200 ul of the culture medium was transferred from each well to a 96 well cell culture dish, and degree of color change was measured from absorbance at a 450 nm wavelength by a spectroscopy.
as §1, with “the known Everolimus (EVR)(LC Laboratories).” for “the peptide compound prepared by Example 2 (hereinafter, referred to as ‘EVR-P’).”, “to the” for “to a”

CO[C@H]1C[C@@H]2CC[C@@H](C)[C@@](O)(O2)C(=O)C(=O)N2CCCC[C@H]2C(=O)O[C@H]([C@H](C)C[C@@H]2CC[C@@H](OCCO)[C@H](OC)C2)CC(=O)[C@H](C)/C=C(\C)[C@@H](O)[C@@H](OC)C(=O)[C@H](C)C[C@H](C)/C=C/C=C/C=C/1C [EVR, Everolimus]
SMC cell proliferation: cell proliferation was inhibited
